The conditions of series [1]: cited from earlier work.
The target of series [2] is T1, BIM-Bcl-xL interactions (Mus musculus, UniProt Q64373).
T1 construct: Lysates for co-IP experiments were prepared from: (a) lungs from mice; endogenous in cells; host or cells: mouse lung tissue (oral aspiration dosing) and mouse bronchiotracheal epithelial (MBE) cells
Kind of series: Target engagement co-immunoprecipitation with anti-BIM, western blot for Bcl-xL. Format: cell-based. (A western blot detects proteins with antibodies after separation by electrophoresis.)
Experimental: Immunoprecipitations were performed using rabbit monoclonal anti-BIM (C34C5) antibodies (Cell Signaling Technology®) bound by Protein A-coated magnetic beads (Life Technologies®). 100 ul lysate was incubated with 10 μL of magnetic beads (pre-coated with 2 μg of antibody) for 1 hour at 4° C. in a Thermal Mixer at 1300 rpm (VWR®). After immunocapture, samples were washed three times with cold lysis buffer and eluted from the beads using non-reducing NuPAGE LDS Sample Buffer® (Life Technologies®). […]

Series [3] deals with Mcl-1 binding to BIM. The series can be described thus: Target engagement co-immunoprecipitation with anti-BIM, western blot for Mcl-1. As to conditions: OA-dosed mouse lungs (8 hours) and MBE cells (4 hours). Format: cell-based. From the text:
A target engagement assay was developed to determine Bcl-xL and Mcl-1's respective interaction with BIM both in vivo in mice, or cells in culture, in order to predict senolysis. The respective binding pockets of Bcl-xL and Mcl-1 proteins under normal conditions sequestrate pro-apoptotic proteins, such as BIM. Co-immunoprecipitation (co-IP) was employed to study protein-protein interactions in order to determine if candidate senolytics can effectively displace Bcl-xL or Mcl-1 from BIM protein.
Lysates for co-IP experiments were prepared from: (a) lungs from mice that had been dosed for 8 hours by oral aspiration (OA) with either a candidate senolytic Bcl (Compound 1) or Mcl-1 inhibitor (S-63845), or a control vehicle treatment; or (b) mouse bronchiotrachael epithelial (MBE) cells, dosed for 4 hours with the same Bcl or Mcl-1 inhibitor, using a non-denaturing lysis buffer: PBS pH 7.4, 2% CHAPS, supplemented with a protease inhibitor cocktail (Roche®)). For every 0.25 gram of tissue 1 mL of lysis buffer was added to the sample, and next tissue was homogenized using a Precellys 24 (Bertin Technologies®; 3 cycles of 20 s and 20 s pause). Homogenates were cleared by centrifugation at 13000 g at 4° C. for 10 min, and the supernatant lysate was transferred to new tubes, aliquoted, flash-frozen using liquid nitrogen, and stored at −80° C. […]

Here are results for three compounds from US20210379078A1, “Killing Senescent Cells And Treating Senescence-Associated Conditions Using A Bcl Inhibitor And An Mcl-1 Inhibitor” (Unity Biotechnology, Inc., priority 2018, published 2021).

T1 sequence (Q64373 whole entry): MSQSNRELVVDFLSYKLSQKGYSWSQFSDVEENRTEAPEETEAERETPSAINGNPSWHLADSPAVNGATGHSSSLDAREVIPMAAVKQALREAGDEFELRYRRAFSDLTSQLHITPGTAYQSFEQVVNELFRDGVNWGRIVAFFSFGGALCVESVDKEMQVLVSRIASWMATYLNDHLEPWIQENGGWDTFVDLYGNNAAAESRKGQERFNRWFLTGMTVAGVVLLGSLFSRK

With `CN(C)CC[C@H](CSc1ccccc1)Nc1ccc(S(=O)(=O)NC(=O)c2ccc(N3CCN(Cc4ccccc4-c4ccc(Cl)cc4)CC3)cc2)cc1[N+](=O)[O-]` [ABT-737], in series [1], the “dose-limiting toxicity in human patients” value is given as “dose-limiting thrombocytopenia”.

On to `Cc1c(-c2c(-c3ccc(F)o3)sc3ncnc(O[C@H](Cc4ccccc4OCc4ccnn4CC(F)(F)F)C(=O)O)c23)ccc(OCCN2CCN(C)CC2)c1Cl` [Compound S-63845], for which the “Bcl-xL binding to BIM when Mcl-1 is inhibited (co-IP)” value in series [2] (S-63845 at 1 uM and 10 uM) is “Bcl-xL appeared to compensate for BIM binding”. For `Cc1c(C(=O)O)c(-c2cccc(N3CCN(c4ccc(NS(=O)(=O)c5ccc(N[C@H](CCN6CCC(OP(=O)(O)O)CC6)CSc6ccccc6)c(S(=O)(=O)C(F)(F)F)c5)cc4)CC3)c2)c(-c2ccc(Cl)cc2)n1C(C)C` [Compound 1], the “Mcl-1 binding to BIM (co-IP)” value in series [3] is “compensatory Mcl-1 binding to BIM was observed”. The “BIM-Bcl-xL interactions (co-IP)” value in series [2] (OA-dosed mouse lungs (8 hours) and MBE cells (4 hours)) was “blocked”.
